# Test results from PMC13400319 (Chemmedchem, 2026).
# Read-outs that look alike come from different tables or passages of the source.
# Target: T1, Aβ42 (Homo sapiens, UniProt P05067)
# T1 construct: amyloid beta (1–42) (Aβ42) self‐aggregation; purchased GenicBio Limited (Shanghai, China)
# Assay: Inhibition of Aβ42 self-aggregation (Thioflavin T fluorescence)
# Type: biochemical
# Details: read-out: Inhibition of Aβ42 self-aggregation, %
# Protocol: Inhibition of β-amyloid (1– 42) (Aβ42) self-aggregation
# Inhibition of Aβ42 self-aggregation by test compounds was studied using the thioflavin T (ThT)
# fluorescence method [8- 10] with minor modifications as described in detail in [11]. Lyophilized
# HFIP- pretreated Aβ42 (GenicBio Limited (Shanghai, China), 1 mg) was dissolved in DMSO to
# obtain a stable 500 μM solution.
# pH 8.0 were incubated for 24 h at 37°C in the absence or presence of 100 μM test compounds.
# Myricetin in the same concentration was used as reference. After incubation, 5 μM ThT in 50
# mM glycine-NaOH buffer pH 8.5 was added, and the fluorescence was measured at 440 nm
# Each assay was run in triplicate. The degree of
# inhibition of Aβ42 self-aggregation by the studied compounds (%) was calculated by the
# of inhibitor, respectively, after subtracting the fluorescence of respective blanks.
# T1 sequence (P05067 672-713 limits assumed): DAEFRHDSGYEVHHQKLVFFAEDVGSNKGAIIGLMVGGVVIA
SMILES,"inhibition at 100 µM (Aβ42 50 µM, compound 100 µM)",inhibition at 100 µM
"Nc1c2c(nc3c1CCC3)CCCC2 [Amiridine, amiridine]",6.4 ± 0.5%,–
O=c1c(O)c(-c2cc(O)c(O)c(O)c2)oc2cc(O)cc(O)c12 [Myricetin],–,74.7 ± 5.2%
